Data taken from US12398093B2, “Compounds and methods for treating inflammatory disorders” (Board of Supervisors of Louisiana State University and …, priority 2019, dated 2025).

Legend:
[1] = test system: adult male Brown Norway rats; assay: Ovalbumin allergic asthma model, whole body plethysmography (ΔPenh) after methacholine challenge; type: in vivo; conditions: rats, nebulized inhaled drug
Source text: (§1) A modification of the ovalbumin model of allergic asthma and whole body plethysmography protocol as described in Nau et al. (Am. J. Physiol. Lung Cell Mol. Physiol. 2015, 308(2): L191-L198; incorporated herein by reference) was used to determine ΔPenh, a measure of airways hyperresponsiveness (AHR), in response to methacholine challenge in adult male Brown Norway rats. Results, shown in FIGS. 2A-2G, represent PenH change measured in the ovalbumin allergic asthma assay in rats, with the exception of FIG. 2C, which was measured in mice, for nebulized inhaled drug. Statistics were performed using 2-way ANOVA with Tukey post hoc test for multiple comparisons.
Allergic asthma is defined as a chronic inflammatory disorder of the airways. This disease is characterized by airway inflammation, persistent airways AHR and intermittent, reversible airways obstruction.
Area under the curve of PenH values (PenH-AUC) in response to incremental doses of metacholine were calculated for each testing groups, naïve, OVA treated, and OVA+DRUG treated animals. A reduction in PenH-AUC values of more than 75% of the control values (OVA alone) was annotated as a strong efficacy. […] Additional to this information are provided the relative to R-DOI EC50 values (ratio) of tested compounds in 5-HT2AR heterologous cell-based calcium transient assay. […] FIG. 3 illustrates the non-correlative nature of the therapeutic efficacy of the phenylethylamines class of compounds against inflammatory-mediated allergen-induced AHR and the reported evidences of the dose necessary for psychoactive disturbances experienced with these compounds in humans or the potency and strength of these compounds to the 5-HT2AR in calcium transients assays.
Inhibition of ΔPenh as a function of 2C-iBu concentration was studied by nebulization nose-only administration of 2C-iBu to male adult Brown Norway rats as described above. Area under the curve for each treatment group at a given dose of 2C-iBu for ΔPenh is plotted on the Y-axis versus concentration of 2C-iBu on the X-axis.

human 5-HT2A receptor = target: T1, human 5-HT2A receptor (Homo sapiens, UniProt P28223); assay: Gq-mediated calcium transients (calcium mobilization), Fluo-4, HEK cells; type: cell-based; conditions: for pEC50 calcium mobilization / EMAX (%) calcium mobilization: Table 4; for EMAX (%) calcium mobilization: percentage of 5-HT response; for Emax: HEK293, read-out: EMAX (%) calcium mobilization
T1 construct: expressed in transfected cells
T1 sequence (P28223 whole entry): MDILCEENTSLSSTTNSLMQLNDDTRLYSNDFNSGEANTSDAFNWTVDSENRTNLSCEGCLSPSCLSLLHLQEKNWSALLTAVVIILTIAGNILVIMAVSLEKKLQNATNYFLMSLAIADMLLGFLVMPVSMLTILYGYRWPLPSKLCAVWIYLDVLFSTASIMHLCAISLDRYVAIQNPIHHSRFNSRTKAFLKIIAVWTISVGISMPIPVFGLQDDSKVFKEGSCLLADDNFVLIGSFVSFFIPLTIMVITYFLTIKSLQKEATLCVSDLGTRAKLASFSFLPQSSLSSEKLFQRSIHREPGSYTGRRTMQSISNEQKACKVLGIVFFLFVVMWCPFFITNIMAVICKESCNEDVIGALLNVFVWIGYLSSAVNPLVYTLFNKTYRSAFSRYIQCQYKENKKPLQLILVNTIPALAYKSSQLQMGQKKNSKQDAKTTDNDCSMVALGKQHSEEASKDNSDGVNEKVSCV

5-HT2AR-Tango construct = target: T2, 5-HT2AR-Tango construct (Homo sapiens, UniProt P28223); assay: β-arrestin-2 recruitment, PRESTO-Tango assay in HTLA cells; type: cell-based; conditions: for pEC50 beta arrestin recruitment / EMAX (%) beta arrestin recruitment: Table 5; for EMAX (%) beta arrestin recruitment: percentage of 5-HT response
T2 construct: expressed in transfected cells; host or cells: HTLA cells (transient transfection)
T2 sequence (P28223 whole entry, added parts left off): as the sequence (P28223 whole entry) above
T2 sequence (P32121 whole entry partner): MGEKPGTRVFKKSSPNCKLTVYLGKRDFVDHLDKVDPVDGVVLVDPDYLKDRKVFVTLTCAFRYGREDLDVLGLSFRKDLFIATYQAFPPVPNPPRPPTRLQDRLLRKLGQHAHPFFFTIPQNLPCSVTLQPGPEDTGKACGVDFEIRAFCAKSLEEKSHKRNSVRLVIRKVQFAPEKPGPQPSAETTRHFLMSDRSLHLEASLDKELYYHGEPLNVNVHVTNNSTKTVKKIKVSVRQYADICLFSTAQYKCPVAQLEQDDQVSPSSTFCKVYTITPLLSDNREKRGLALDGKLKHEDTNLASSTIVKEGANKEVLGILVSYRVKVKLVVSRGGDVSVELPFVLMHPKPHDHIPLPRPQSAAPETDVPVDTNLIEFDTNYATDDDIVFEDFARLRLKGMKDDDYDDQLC

mice = assay: Ovalbumin allergic asthma assay (PenH), nebulized inhaled drug, mice (FIG. 2C); type: in vivo; conditions: 1.0 mg/kg (FIG. 2C)
Source text: as §1

Structure (SMILES)	pEC50 calcium mobilization (human 5-HT2A receptor)	EMAX (%) calcium mobilization (human 5-HT2A receptor)	EMAX (%) beta arrestin recruitment (5-HT2AR-Tango construct)	also measured
Cl.NCCc1c2c(c(Br)c3c1OCC3)OCC2 [2C-B-Fly.HCl]				Prevention of AHR (ΔPenh/PenH) in response to OVA ([1]; 0.5 mg/kg): significant difference from OVA to naive, and from 2C-B-Fly.HCl+OVA to naive
COc1cc(CCN)c(OC)cc1Br [2C-B]	8.11	78.00%	39.46%	pEC50 beta arrestin recruitment (5-HT2AR-Tango construct): 5.99
COc1ccc(OC)c(CCN)c1 [2C-H]	6.34	69.50%	10.98%	pEC50 beta arrestin recruitment (5-HT2AR-Tango construct): 7.07
COc1cc(CCN)c(OC)cc1I [2C-I]	8.14	72.80%		
COc1cc(CC(C)(C)C)c(OC)cc1CCN [2C-NP]				EC50 (human 5-HT2A receptor): 155 nM; Emax (human 5-HT2A receptor): 76%
COc1cc(C(C)C)c(OC)cc1CCN [2C-iP]	7.59	52.07%	3.46%	pEC50 beta arrestin recruitment (5-HT2AR-Tango construct): 7.8
COc1cc(CCNCc2ccccc2OC)c(OC)cc1I [25I-NBOMe]				Prevention of AHR (ΔPenh/PenH) in response to OVA ([1]; 1.0 mg/kg): reduced potency
COc1cc(CC(C)N)c(OC)cc1Br (stereo not drawn) [DOB]				Prevention of AHR (PenH) in response to OVA (mice): did not reduce potency
COc1cc(C(F)(F)F)c(OC)cc1CC(C)N (stereo not drawn) [DOTFM]				Prevention of AHR (ΔPenh/PenH) in response to OVA ([1]; 0.5 mg/kg): significant difference from OVA+DOTFM to naive
COc1cc(CC(C)N)c(OC)cc1CC(C)C (stereo not drawn) [DOiBu]				EC50 (human 5-HT2A receptor): 4.47 nM; Emax (human 5-HT2A receptor): 90.6%; EC50 (5-HT2AR-Tango construct): 5.89 nM; Emax (5-HT2AR-Tango construct; HTLA, read-out: EMAX (%) beta arrestin recruitment): 70.2%
COc1cc(C(C)C)c(OC)cc1CC(C)N (stereo not drawn) [DOiP]	8.29	73.17%	20.40%	pEC50 beta arrestin recruitment (5-HT2AR-Tango construct): 8.24
COc1ccc(OC)c(C[C@@H](C)N)c1 [R-2,5-DMA]		108.38%	65.51%	
COc1cc(C[C@@H](C)N)c(OC)cc1Br [R-DOB]		79.80%	98.14%	
COc1cc(Br)c(OC)c2c1[C@H](CN)C2 [TCB-2]				Prevention of AHR (ΔPenh/PenH) in response to OVA ([1]; 0.5 mg/kg): reduced PenH, it was still significantly elevated over naive controls
